The text below walks through data of article PMC10454243, “Anticancer Study of a Novel Pan-HDAC Inhibitor MPT0G236 in Colorectal Cancer Cells” (International Journal of Molecular Sciences, 2023).

One data set deals with HCT-116 cells. More on the design: method as in PMID 27344487. To be noted: previous study, read-out: GI50 cell proliferation; cited from earlier work.
Another data set concerns HDAC6. More on the design: method as in PMID 27344487. As to conditions: Class IIb; cited from earlier work.
Details of data set [1]: method as in PMID 27344487. As to conditions: in vivo HCT-116 tumor study; cited from earlier work.
The next data set has as its target T1, HDAC3 (Homo sapiens, UniProt O15379).
T1 construct: purchased Reaction Biology Corp. (contract assay service)
Briefly: HDAC enzyme inhibition assay, HDAC3. The format is biochemical. To be noted: Class I; Reaction Biology Corp. assay. On the procedure: (§1) HDAC activity inhibition assays were performed by Reaction Biology Corp. (Malvern, PA, USA).

Another data set has as its system HDAC1. More on the design: method as in PMID 27344487. As to conditions: Class I; cited from earlier work.
Data set [2] relates to HT-29 human colorectal cancer cells. Briefly: MTT cell viability assay, HT-29. To be noted: read-out: IC50 cell viability. The format is cell-based. For orientation: Formazan colour is commonly taken as a measure of viable cells.
In the next data set the target is T2, HDAC9 (Homo sapiens, UniProt Q9UKV0).
T2 construct: purchased Reaction Biology Corp. (contract assay service)
T2 sequence (Q9UKV0 whole entry): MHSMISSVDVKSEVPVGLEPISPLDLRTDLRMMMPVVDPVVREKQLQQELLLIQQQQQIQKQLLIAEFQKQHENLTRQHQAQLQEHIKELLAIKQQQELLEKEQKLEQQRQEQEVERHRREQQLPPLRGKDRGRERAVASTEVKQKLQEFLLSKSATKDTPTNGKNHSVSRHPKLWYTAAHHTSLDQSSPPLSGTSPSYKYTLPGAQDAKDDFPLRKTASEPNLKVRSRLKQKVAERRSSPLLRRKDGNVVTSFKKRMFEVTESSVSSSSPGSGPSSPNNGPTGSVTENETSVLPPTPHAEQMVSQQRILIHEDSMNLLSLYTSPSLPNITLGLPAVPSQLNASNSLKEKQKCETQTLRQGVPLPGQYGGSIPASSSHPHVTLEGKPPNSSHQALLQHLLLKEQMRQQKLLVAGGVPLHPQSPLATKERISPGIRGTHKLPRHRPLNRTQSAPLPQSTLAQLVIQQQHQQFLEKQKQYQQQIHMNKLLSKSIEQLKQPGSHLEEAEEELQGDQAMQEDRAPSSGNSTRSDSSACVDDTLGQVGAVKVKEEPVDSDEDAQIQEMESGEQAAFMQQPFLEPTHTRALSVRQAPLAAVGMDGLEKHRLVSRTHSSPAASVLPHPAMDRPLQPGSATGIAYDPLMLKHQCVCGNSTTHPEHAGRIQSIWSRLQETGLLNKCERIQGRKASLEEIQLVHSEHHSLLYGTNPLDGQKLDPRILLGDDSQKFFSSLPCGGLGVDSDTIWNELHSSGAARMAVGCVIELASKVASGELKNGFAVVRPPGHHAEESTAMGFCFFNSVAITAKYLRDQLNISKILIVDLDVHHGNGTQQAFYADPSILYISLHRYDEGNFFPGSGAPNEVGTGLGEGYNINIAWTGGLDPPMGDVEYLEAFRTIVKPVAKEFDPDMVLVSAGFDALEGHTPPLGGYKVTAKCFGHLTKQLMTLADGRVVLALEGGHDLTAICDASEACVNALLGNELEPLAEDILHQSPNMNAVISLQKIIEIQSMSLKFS
Briefly: HDAC enzyme inhibition assay, HDAC9. The format is biochemical. To be noted: Class IIa; Reaction Biology Corp. assay. As to the method: as §1

Data set [3] has as its system HCT-116 human colorectal cancer cells. Put plainly: MTT cell viability assay, HCT-116. Format: cell-based. As to conditions: 48 h.
Another data set concerns A549 cells. More on the design: method as in PMID 27344487. To be noted: previous study, read-out: GI50 cell proliferation; cited from earlier work.
For another data set, the system named is HDAC2. Also noted: method as in PMID 27344487. To be noted: Class I; cited from earlier work.
In data set [4] the test system is HT-29 human colorectal cancer cells. Briefly: SRB cell proliferation (growth) assay, HT-29. To be noted: read-out: GI50 cell growth. Format: cell-based. As to the method:
(§2) The impacts of MPT0G236 on cell viability (A,C) and cell growth (B) were evaluated with HCT-116 and HT-29 human colorectal cancer cells, as well as human umbilical vein endothelial cells (HUVECs). The cells were treated with different concentrations of the compound for 48 h. Cell viability was measured using an MTT assay, while cell growth was assessed using an SRB assay. The data are shown as the mean ± SEM on the basis of three independent experiments. […] The basal cells were fixed with 10% (w/v) trichloroacetic acid for 10 min. […] After treatment, the cells were fixed with 10% TCA, stained with SRB at a concentration of 0.4% (w/v), and washed with 1% acetic acid. After drying, the stained cells were lysed with 10 mM Trizma base, and the absorbance was measured at a wavelength of 515 nm.

A further data set relates to HDAC8. To be noted: Class I; cited from earlier work.
A further data set concerns the target T3, HDAC4 (Homo sapiens, UniProt P56524).
T3 construct: purchased Reaction Biology Corp. (contract assay service)
Put plainly: HDAC enzyme inhibition assay, HDAC4. To be noted: Class IIa; Reaction Biology Corp. assay. Format: biochemical. As to the method: as §1

The next data set deals with T4, HDAC5 (Homo sapiens, UniProt Q9UQL6).
T4 construct: purchased Reaction Biology Corp. (contract assay service)
T4 sequence (Q9UQL6 whole entry): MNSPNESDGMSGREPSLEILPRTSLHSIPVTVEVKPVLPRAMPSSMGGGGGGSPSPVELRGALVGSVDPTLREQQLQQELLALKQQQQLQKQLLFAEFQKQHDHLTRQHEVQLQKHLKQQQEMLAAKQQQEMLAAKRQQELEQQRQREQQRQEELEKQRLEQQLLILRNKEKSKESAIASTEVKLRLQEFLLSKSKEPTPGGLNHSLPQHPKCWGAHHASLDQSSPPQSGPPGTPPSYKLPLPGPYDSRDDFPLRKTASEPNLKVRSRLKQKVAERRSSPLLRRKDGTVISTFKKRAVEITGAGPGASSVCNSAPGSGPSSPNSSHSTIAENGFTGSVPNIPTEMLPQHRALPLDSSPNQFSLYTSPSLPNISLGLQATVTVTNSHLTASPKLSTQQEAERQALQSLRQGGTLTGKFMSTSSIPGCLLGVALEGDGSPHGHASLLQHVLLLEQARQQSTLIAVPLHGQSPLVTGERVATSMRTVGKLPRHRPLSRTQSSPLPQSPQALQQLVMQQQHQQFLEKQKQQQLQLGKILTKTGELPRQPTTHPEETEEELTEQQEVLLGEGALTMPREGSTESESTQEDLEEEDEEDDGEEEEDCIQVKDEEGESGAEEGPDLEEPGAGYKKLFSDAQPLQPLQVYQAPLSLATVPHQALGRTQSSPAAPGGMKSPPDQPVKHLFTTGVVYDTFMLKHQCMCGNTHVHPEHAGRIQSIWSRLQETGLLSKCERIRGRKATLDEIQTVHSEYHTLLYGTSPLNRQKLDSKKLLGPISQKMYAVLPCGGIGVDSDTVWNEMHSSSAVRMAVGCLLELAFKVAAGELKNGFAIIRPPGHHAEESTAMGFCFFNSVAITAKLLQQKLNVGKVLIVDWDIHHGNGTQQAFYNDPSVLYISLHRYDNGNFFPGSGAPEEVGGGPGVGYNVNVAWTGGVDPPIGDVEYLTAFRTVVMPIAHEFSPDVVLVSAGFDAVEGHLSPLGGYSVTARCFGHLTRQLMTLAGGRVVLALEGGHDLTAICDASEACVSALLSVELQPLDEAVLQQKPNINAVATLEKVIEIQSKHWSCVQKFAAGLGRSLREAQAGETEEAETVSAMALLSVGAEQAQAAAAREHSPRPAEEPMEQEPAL
Put plainly: HDAC enzyme inhibition assay, HDAC5. The format is biochemical. To be noted: Class IIa; Reaction Biology Corp. assay. As to the method:
as §1

Another data set has as its system HCT-116 tumor. More on the design: method as in PMID 27344487. To be noted: cited from earlier work.
For data set [5], the system named is acetyl-α-tubulin and acetyl-histone H3 in HCT-116 cells. Briefly: Western blot of acetyl-α-tubulin and acetyl-histone H3, HCT-116. The format is cell-based, human. To be noted: 24 h. As to the method: (§3) Figure 2 MPT0G236 induced acetylation of α-tubulin and histone H3 in human colorectal cells. (A) The structure of MPT0G236. […] Protein expression was quantified by using the computerized image analysis application in ImageJ software V1.53k. The data are shown as the mean ± SEM on the basis of at least three independent experiments. * p < 0.05, ** p < 0.01, *** p < 0.001 and **** p < 0.0001 compared with the control group.
(§4) Cells were washed with PBS and incubated with lysis buffer (20 mM HEPES, pH 7.4; 2 mM EGTA; 0.1% Triton X-100; 50 mM β-glycerophosphate; 1 mM DTT; 10% glycerol; 1 μg/mL leupeptin; 1 mM sodium orthovanadate; 1 mM phenylmethylsulfonyl fluoride; 5 μg/mL aprotinin) for 10 min at 4 °C. The cells were then scraped off and incubated on ice for an additional 10 min before being centrifuged at 17,000× g for 30 min at 4 °C. The total protein […] was determined, and equal amounts of proteins were separated by […] on sodium dodecyl sulfate polyacrylamide gels (SDS-PAGE) and transferred onto a nitrocellulose membrane. […] Signals were detected with chemiluminescence reagents (GE Healthcare Corp., Buckinghamshire, UK), and the membranes were scanned using a ChemiDocTM MP Imaging System. Protein levels in the Western blots were then quantified using ImageJ software V1.53k.
On the technique in general: Immunoblotting shows a protein as a band on a membrane.

The subject of data set [6] is HCT-116 human colorectal cancer cells. Briefly: SRB cell proliferation (growth) assay, HCT-116. Format: cell-based. As to conditions: read-out: GI50 cell growth. On the procedure: as §2
The next data set concerns PC-3 cells. More on the design: method as in PMID 27344487. To be noted: previous study, read-out: GI50 cell proliferation; cited from earlier work.
The next data set has as its target T5, HDAC7 (Homo sapiens, UniProt Q8WUI4).
T5 construct: purchased Reaction Biology Corp. (contract assay service)
T5 sequence (Q8WUI4 1-952): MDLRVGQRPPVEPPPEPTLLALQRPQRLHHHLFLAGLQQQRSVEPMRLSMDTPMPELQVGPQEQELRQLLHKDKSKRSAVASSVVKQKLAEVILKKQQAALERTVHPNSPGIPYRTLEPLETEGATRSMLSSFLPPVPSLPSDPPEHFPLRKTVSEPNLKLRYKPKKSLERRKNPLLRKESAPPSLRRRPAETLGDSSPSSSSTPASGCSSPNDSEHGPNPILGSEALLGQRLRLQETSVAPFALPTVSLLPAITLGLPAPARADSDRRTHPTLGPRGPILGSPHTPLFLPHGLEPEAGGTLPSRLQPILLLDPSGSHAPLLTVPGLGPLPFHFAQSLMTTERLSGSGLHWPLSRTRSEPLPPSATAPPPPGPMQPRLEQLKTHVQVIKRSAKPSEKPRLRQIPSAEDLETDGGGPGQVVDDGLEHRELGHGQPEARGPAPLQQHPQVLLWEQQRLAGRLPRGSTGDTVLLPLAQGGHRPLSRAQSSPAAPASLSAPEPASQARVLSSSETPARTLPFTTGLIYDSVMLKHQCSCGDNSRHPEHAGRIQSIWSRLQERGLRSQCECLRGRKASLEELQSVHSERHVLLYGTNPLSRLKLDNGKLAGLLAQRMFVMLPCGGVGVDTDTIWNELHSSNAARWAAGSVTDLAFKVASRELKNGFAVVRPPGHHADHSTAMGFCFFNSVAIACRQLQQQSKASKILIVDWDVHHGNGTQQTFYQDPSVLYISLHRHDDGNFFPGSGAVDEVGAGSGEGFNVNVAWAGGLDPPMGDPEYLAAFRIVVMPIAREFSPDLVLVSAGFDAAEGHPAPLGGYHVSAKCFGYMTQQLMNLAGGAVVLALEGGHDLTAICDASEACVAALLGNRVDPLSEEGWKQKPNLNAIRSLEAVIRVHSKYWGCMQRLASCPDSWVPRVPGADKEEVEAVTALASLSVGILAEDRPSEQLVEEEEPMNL
Briefly: HDAC enzyme inhibition assay, HDAC7. The format is biochemical. As to conditions: Class IIa; Reaction Biology Corp. assay. On the procedure:
as §1

Data set [7] relates to acetyl-α-tubulin and acetyl-histone H3 in HT-29 cells. Briefly: Western blot of acetyl-α-tubulin and acetyl-histone H3, HT-29. The format is cell-based, human. As to conditions: 24 h. On the procedure:
as §3, §4

The subject of data set [8] is human umbilical vein endothelial cells (HUVECs). Put plainly: MTT cell viability assay, HUVEC. Format: cell-based.

Read-outs that look alike come from different tables or passages of the source.

T3 sequence (P56524 whole entry): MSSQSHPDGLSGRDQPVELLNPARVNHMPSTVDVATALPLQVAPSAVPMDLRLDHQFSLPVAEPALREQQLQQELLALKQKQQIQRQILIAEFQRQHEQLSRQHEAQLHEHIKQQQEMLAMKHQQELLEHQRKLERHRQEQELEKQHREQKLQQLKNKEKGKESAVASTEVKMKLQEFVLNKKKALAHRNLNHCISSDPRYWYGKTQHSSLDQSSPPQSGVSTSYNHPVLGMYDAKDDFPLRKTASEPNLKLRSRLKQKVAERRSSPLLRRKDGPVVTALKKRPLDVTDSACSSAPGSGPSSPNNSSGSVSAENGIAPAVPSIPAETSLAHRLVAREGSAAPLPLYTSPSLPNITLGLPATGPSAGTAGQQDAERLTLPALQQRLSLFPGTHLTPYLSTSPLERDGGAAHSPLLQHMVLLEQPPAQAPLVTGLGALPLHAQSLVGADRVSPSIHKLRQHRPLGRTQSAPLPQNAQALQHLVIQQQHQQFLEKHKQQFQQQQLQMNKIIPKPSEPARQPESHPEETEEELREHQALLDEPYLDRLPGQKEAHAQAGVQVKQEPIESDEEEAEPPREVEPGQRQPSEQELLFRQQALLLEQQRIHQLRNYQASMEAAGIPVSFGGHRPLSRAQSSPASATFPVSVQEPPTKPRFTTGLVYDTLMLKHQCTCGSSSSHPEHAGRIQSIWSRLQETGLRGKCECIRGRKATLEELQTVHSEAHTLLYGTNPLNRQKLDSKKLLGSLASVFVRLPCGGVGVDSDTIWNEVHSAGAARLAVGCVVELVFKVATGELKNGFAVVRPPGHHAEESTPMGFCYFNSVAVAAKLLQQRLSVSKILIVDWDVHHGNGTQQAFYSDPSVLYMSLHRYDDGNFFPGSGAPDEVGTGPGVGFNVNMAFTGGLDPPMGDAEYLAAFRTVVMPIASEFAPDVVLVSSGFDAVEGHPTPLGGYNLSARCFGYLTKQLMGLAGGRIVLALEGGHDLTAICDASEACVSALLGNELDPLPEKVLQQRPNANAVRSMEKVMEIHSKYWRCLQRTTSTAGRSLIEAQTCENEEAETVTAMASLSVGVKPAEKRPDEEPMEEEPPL
T1 sequence (O15379 whole entry): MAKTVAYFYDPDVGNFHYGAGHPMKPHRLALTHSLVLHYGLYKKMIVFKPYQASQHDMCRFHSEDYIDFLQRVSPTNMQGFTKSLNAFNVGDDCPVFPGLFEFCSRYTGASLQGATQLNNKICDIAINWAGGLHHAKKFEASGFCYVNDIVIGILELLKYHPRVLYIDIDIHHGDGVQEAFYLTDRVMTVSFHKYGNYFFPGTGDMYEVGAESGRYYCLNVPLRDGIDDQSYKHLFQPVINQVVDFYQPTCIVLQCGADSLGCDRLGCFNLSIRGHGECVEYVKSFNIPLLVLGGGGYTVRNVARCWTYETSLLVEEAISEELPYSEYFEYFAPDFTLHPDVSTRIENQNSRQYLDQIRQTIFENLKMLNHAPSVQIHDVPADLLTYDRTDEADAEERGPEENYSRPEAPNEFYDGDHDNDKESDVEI
T1 sequence (Q9Y618 395-489 partner limits assumed): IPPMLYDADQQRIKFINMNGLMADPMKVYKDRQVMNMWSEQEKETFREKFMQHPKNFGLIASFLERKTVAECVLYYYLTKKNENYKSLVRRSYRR

For orientation: IC50 means the midpoint of a concentration-inhibition curve. With `O=C(/C=C/c1cccc(S(=O)(=O)c2ccc3ccccc3n2)c1)NO` [MPT0G236], the GI50 in the data set on HCT-116 cells is 80 ± 1 nM; in the data set with A549 cells it was 270 ± 20 nM; in data set [4] (HT-29, SRB, 48 h), 310 nM; in data set [6] (HCT-116, SRB, 48 h), 100 nM; with PC-3 cells it was 150 ± 10 nM. The half-inhibitory concentration (IC50) in the data set with HDAC6 is 15 nM; on HDAC3, 70 nM; in the data set on HDAC1, 14 nM; in data set [2] (HT-29, MTT, 48 h), 880 nM; at HDAC9, 12600 nM; in data set [3], 350 nM. Moreover, the IC50 in the data set with HDAC2 was 11.5 nM; in the data set with HDAC8, 130 nM; against HDAC4 it was 19700 nM; at HDAC5, 15500 nM; at HDAC7 it was 12300 nM; in data set [8] (Homo sapiens, HUVEC, 48 h), 15100 nM. The “effect on body weight” value in data set [1] is given as “without affecting body weight”. Besides, the “HCT-116 tumor growth suppression” value in the data set on HCT-116 tumor (oral administration of 50 mg/kg) is reported as 32.2%; in the data set with HCT-116 tumor (oral administration of 100 mg/kg), 58.8%. Further, the “concentration that significantly increased accumulation of acetyl-α-tubulin” value in data set [5] is 0.3 µM. Moreover, the “concentration that significantly increased histone acetylation” value in [5] was determined as 1 µM. In data set [7], the “concentration that significantly elevated acetyl-α-tubulin” value was found to be 3 µM. In addition, in data set [7], the “concentration that significantly elevated histone acetylation” value is 1 µM. In addition, in data set [8] (HUVEC IC50 versus HCT-116 and HT-29 IC50), the “normal cells (HUVEC) less sensitive than colorectal cancer cells” value is “more than 10 fold”.
`O=C(CCCCCCC(=O)Nc1ccccc1)NO` [SAHA, Suberoylanilide hydroxamic acid, reference compound]: the half-inhibitory concentration (IC50) in [2] (HT-29, 48 h) is 2310 nM. Also, the GI50 stood at 470 nM in [4] (HT-29, 48 h) and 630 nM in data set [6] (HCT-116, 48 h).
